The source of these data is patent US6218427A, “Chromene-3-carboxylate derivatives” (Shionogi & Co., Ltd., priority 1996, dated 2001).

Assay [1] relates to foam cells. Conditions: American Journal of Pathology vol. 146, No.4, 819-826 (1995); cited from earlier work.
Assay [2] deals with T1, endothelin B (ETB) receptor (Sus scrofa, UniProt P35463).
T1 construct: expressed in transfected cells; host or cells: COS-7
T1 sequence (P35463 27-443): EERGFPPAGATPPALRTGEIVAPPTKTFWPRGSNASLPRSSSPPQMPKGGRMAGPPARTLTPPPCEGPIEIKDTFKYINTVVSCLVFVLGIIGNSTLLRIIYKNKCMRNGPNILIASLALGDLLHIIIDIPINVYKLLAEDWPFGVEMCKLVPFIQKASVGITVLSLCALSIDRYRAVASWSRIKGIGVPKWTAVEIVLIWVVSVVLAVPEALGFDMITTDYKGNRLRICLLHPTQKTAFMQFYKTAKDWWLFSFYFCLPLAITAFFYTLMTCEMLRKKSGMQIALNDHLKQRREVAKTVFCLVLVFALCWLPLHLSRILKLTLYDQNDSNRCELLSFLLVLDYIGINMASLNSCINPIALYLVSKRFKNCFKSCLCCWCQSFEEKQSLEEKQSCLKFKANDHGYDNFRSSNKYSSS
Briefly: Measurement of affinity for endothelin B (ETB) receptor: inhibition of 125I-labeled endothelin-3 binding to COS-7 cells expressing pig ETB receptor. To be noted: 125I-endothelin-3 25 pM, 37° C., 1 h. The method, then: Experiment 2 Measurement of affinity for endothelin B (ETB) receptor
Affinities for the ETB receptor were measured from the potency for inhibiting ^125 I-labeled endothelin-3 binding to COS-7 cells expressing the pig endothelin ETB receptor. In brief, a plasmid vector to which the pig endothelin ETB receptor gene was inserted was transfected to COS-7 cells by the lipofectin method. After the cells were washed with buffer, 10^3 -10^4 cells were dispersed in HEPES buffered Hanks' solution (0.1 ml) containing 25 pM of 125I labeled endothelin-3 and various kinds of protease inhibitors and incubated in the presence or absence of the compound of the present invention at 37° C. for 1 h. After completion of the reaction, the radioactivity bound was trapped by a glass fiber filter and measured with a gamma counter. Specific binding was calculated by subtracting the non-specific binding measured in the presence of 10^-7 M non-radioactive endothelin-3 from the total binding.

Assay [3] addresses T2, endothelin A (ETA) receptor (Rattus norvegicus, UniProt P26684).
T2 construct: smooth muscle A7r5 cells derived from rat aorta; endogenous in cells; host or cells: A7r5 (rat aorta smooth muscle cells)
T2 sequence (P26684 21-426): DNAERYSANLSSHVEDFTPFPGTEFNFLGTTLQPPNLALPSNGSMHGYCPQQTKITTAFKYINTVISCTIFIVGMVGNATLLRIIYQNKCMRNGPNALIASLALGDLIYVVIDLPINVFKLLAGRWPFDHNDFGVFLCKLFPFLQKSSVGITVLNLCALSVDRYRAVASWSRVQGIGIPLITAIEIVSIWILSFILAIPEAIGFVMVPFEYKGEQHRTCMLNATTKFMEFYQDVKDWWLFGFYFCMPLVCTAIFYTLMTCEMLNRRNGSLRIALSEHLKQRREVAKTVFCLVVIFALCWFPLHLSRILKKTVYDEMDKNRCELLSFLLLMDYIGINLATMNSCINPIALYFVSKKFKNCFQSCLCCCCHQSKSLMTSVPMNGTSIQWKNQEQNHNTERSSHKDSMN
Briefly: Measurement of affinity for endothelin A (ETA) receptor: inhibition of 125I-labeled endothelin-1 binding to A7r5 cells. Conditions: 125I-endothelin-1 8.3 pM, A7r5 cells derived from rat aorta, 37° C., 1 h. On the procedure: Experiment 1 Measurement of affinity for endothelin A (ETA) receptor
Affinities for the ETA receptor were measured from the potency for inhibition of binding of ^125 I-labeled endotheline-1 to smooth muscle A7r5 cells derived from rat aorta. In brief, the cells cultured in 48-well plates were washed with buffer, and incubated in 0.3 ml of Hepes buffered Hanks' solution containing labeled endothelin-1 (8.3 pM) and various kinds of protease inhibitors in the presence or absence of the compound of the present invention at 37° C. for 1 h. The incubation was terminated by rapid removal of the incubation medium and the cells were washed with a HEPES buffered Hanks' solution. The radioactivity of ^125 I-labeled endothelin-1 bound to the cells was determined with a gamma-counter. The specific binding was calculated by subtracting the non-specific binding which was determined in the presence of 10^-7 M non radioactive endothelin-1 from the total binding.

Assay [4] in a line: Effect on peripheral circulatory insufficiency (tail blood flow after 3° C. immersion). In kind it is in vivo, Wistar rats. On the procedure:
Experiment 4 Effect on peripheral circulatory insufficiency
Using Wistar rats, the peripheral circulatory insufficiency model was produced by immersing the rat tail tip (2-3 cm) in 1° C. water for 9 h, and experiments were performed at 3 weeks after above treatment. Tail blood flows in peripheral circulatory insufficiency rats were measured with laser-Doppler flowmetry with a tablet probe during immersing the whole tail in 3° C. water (30 min) The probe was held directly adjacent to the ventral surface of the tail, approximately 14 cm from the tip. To evaluate the effects of the compound of the present invention, peripheral circulatory insufficiency rats administered by the compound of the present invention (I-36, 30 mg/kg, po) at 2 h before 3° C. immersion.
In the normal Wistar rats, tail blood flow was transiently declined after 3° C. immersion, and gradually recovered up to about 70 % of basal level at 25 to 30 min after the immertion (normal rat). On the other hand, in the peripheral circulatory insufficiency rats, the tail blood flow measured immediately before administration of the compound of the present invention recovered to no more than 40% of basal level (peripheral circulatory insufficiency rat). […] Three days after administration of the compound of the present invention, when the circulatory effects of the compound was supposed to fully disappear, tail blood flows during 3° C. immersion were measured again. […] For statistic analysis, Dunnett's test was used.

For assay [5], the system named is macrophage foam cell. As to the kind of experiment: Inhibition of macrophage foam cell formation in high-cholesterol-diet hamsters (aortic arch). In kind it is in vivo, golden Syrian hamster. Conditions: 6 weeks, 8 hamsters, p < 0.01 vs HCD group (HCD 25.7 ± 2.7). The text has this:
Experiment 3 Inhibition of macrophage foam cell formation
Male golden Syrian hamster of 12 weeks old, were used for the experiment. Hamsters were classified into a group wherein hamsters were fed with usual powder diet (OD group), a group wherein hamsters were fed with diet containing high cholesterol (2%) (HCD group) and a group wherein hamsters were fed with diet containing high cholesterol (2%) and the compound I-36 of the present invention (HCD +I-36 group) and animals in each group were fed for 6 weeks. The added amount of the compound 1-36 of the present invention was 0.01, 0.03 and 0.1% and they were equivalent to 6, 19, 66 mg/kg, respectively, calculated from food intake. Each group contains 8 hamsters.
After feeding for 6 weeks, hamsters were anesthetized with pentobarbital and subjected to thoracotomy to expose a heart. Arch of the aorta was removed after reperfusion with phosphate-buffered 10% formalin solution from the ventricle. The arch of the aorta was opened longitudinally and the number of foam cells in a microphotograph after staining with oil red O was counted with a colony counter to calculate the number per aortic arch area. The significant difference between the groups was examined by Dunnett's multiple comparison test.

`Cc1noc(NS(=O)(=O)c2cccc3c(N(C)C)cccc23)c1C` [BMS-182874]: in assay [1], the “number and size of foam cells” value was “reduce the number and size of foam cells”.

Turning to `COc1ccc(C2=C(C(=O)O)C(c3ccc4c(c3)OCO4)Oc3ccc(OC(C)C)cc32)cc1` (stereo not shown) [Compound I-36, 2-(Benz[1,3]dioxol-5-yl)-6-isopropoxy-4-(4-methoxy-phenyl)-2H-chromen-3-carboxylic acid], the IC50 in assay [2] was found to be 180 nM; in assay [3], 0.89 nM. In addition, the “skin blood flow (%), average from 20-25 min after cold exposure” value in assay [4] (insufficiency rat + I-36, 30 mg/kg, po, 2 h before 3° C. immersion, n = 4, p < 0.01 vs insufficiency rat control (37.20 ± 3.29)) worked out at 62.02 ± 1.23%; in assay [4] (wash out: three days after administration of I-36, n = 4), 44.19 ± 5.83%. For the same compound, the “recovery of the tail blood flow” value in assay [4] (insufficiency rat + I-36, 30 mg/kg, po, in words) is “remarkable and significant”. In addition, the “recovery of the blood flow after wash out” value in assay [4] (three days after administration of I-36, in words) was “same as that before administration”. The “Aortic foam cell numbers / mm^2 (Mean ± SE)” value is recorded as 10.1 ± 1.7 / mm^2 in assay [5] (HCD + 0.01% I-36 in diet (equivalent to 6 mg/kg)), 9.1 ± 0.8 / mm^2 in assay [5] (HCD + 0.03% I-36 in diet (equivalent to 19 mg/kg)) and 8.8 ± 1.1 / mm^2 in assay [5] (HCD + 0.1% I-36 in diet (equivalent to 66 mg/kg)).
